Source: ChEMBL document CHEMBL3301361, “Experimental in vitro DMPK and physicochemical data on a set of publicly disclosed compounds”

Experiments:
in vitro [1] = conditions: human, plasma, PPB
in vitro [2] = conditions: SD, HW or BN, rat, plasma

fraction unbound at 5 h (in vitro [1])	fraction unbound at 5 h (in vitro [2])	SMILES
0.232	0.24	O=C(O)CNC(=O)c1ncccc1O
0.013	0.02	O=C(NCc1ccccn1)c1cc(-c2ccccc2)nc2ccccc12
0.0077	0.0092	CC(C)(Oc1ccc(Cl)cc1)C(=O)N1CCN(c2ccccn2)CC1
0.0061	0.0064	Cc1ccc(NC(=O)Nc2nnc(-c3ccncc3)s2)cc1
0.0229	0.024	CN(c1ccccc1)S(=O)(=O)c1ccc(NC(=O)C(C)(O)C(F)(F)F)cc1 (configuration not stated)
0.101	0.19	Cc1ccc(S(=O)(=O)NCCSc2nnnn2-c2ccc(C(N)=O)cc2)cc1
0.002	0.007	Cc1cc(I)cc2c1NC(C(=O)O)C1CC=CC21 (configuration not stated)
0.0066	0.0059	COc1ccc2c(c1)C(=O)C(=O)N2CC1COc2ccccc2O1 (configuration not stated)
0.04	0.0032	Cc1cc(C)c(C)c(Cn2ccc3c(/C=N/NC(=O)c4ccc(O)c(C#N)c4)cccc32)c1C
0.0033	0.0067	Cc1nc2ccc(NS(=O)(=O)c3ccc4c(c3)OCCO4)cc2s1
0.0209	0.051	Cc1ccc(S(=O)(=O)Nc2ccc3nc(C)oc3c2)cc1
0.002	0.003	Cc1onc(-c2c(Cl)cccc2Cl)c1NC(=O)OCc1c(F)cccc1Cl
0.009	0.0457	Cc1onc(-c2c(Cl)cccc2Cl)c1CC(=O)NCc1ccc(OCC(F)(F)F)nc1
0.201	0.16	O=c1cc(Cn2c(C3CCC3)nc3nccnc32)c2ccc(F)c(F)c2[nH]1
0.179	0.262	CN(C)CCC1CCN(c2cc(C(=O)NC[C@H]3CC[C@H](CNC(=O)OC4CCOCC4)CC3)c3ccccc3n2)CC1
0.0262	0.089	Cc1ccc(S(=O)(=O)Nc2c(C(=O)NC3CCOCC3)c(C)nn2-c2ccccc2)cc1
0.101	0.11	O=c1cc(N2CCOCC2)nc2n(Cc3cccc(Cl)c3)ccn12
0.163	0.157	COc1ccc(CCC[N+](C)(CCCc2ccc(OC)cc2)CCNC(=O)c2nc(Cl)c(N)nc2N)cc1
0.0066	0.0028	COc1cccc2c1c(NS(=O)(=O)c1ccc(Cl)s1)nn2Cc1cccc(CNC(C)=O)c1
0.0447	0.0149	Cn1c(-c2cc(=O)c(O)c[nH]2)nn(S(=O)(=O)NC(=O)N2C[C@H](NC(=O)/C(=N\OC(C)(C)C(=O)O)c3csc(N)n3)C2=O)c1=O
0.0418	0.0383	Cc1nn(-c2ccccc2)nc1C(=O)N[C@@H]1COc2cccc(N3CCN(C)CC3)c2C1
0.0409	0.089	O=C(N[C@@H]1COc2cccc(-c3ccc(CO)nc3)c2C1)c1ccc(OCCOCC(F)(F)F)nc1
0.0418	0.069	CC(C)C(NC(=O)c1ccccc1)C(=O)c1ccc([N+](=O)[O-])cc1 (configuration not stated)
0.0499	0.0836	CC(C)C(NC(=O)c1ccccc1)C(=O)c1ccc(F)cc1 (configuration not stated)

fraction unbound at 5 h (in vitro [1])	fraction unbound at 5 h (in vitro [2])	SMILES
0.0928	0.124	CC(C)C(NC(=O)c1ccccc1)C(=O)c1ccc(C#N)cc1 (configuration not stated)
0.0262	0.0428	CC(C)C(NC(=O)c1cc(Cl)ccc1C(F)(F)F)C(=O)c1ccc(C#N)cc1 (configuration not stated)
0.006	0.0081	CC(C)(C)C(NC(=O)c1ccccc1)C(=O)c1ccc(Cl)cc1 (configuration not stated)
0.119	0.139	COc1ncc(-c2cccc(C#N)c2CCNC(=O)c2ccc(OCCC(F)(F)F)nc2)cn1
0.0099	0.129	COc1ncc(-c2ccccc2C(F)(F)CNC(=O)c2ccc(COCC(F)(F)F)nc2)cn1
0.002	0.0437	COc1ncc(-c2c(C)ccc(F)c2CCNC(=O)c2ccc(OCC(F)(F)F)nc2)cn1
0.0801	0.28	Cc1cnc(-c2c(F)ccc(F)c2CCNC(=O)c2ccc(COCC(F)(F)F)nc2)cn1
0.0328	0.0457	COc1cnc(-c2cccc(F)c2C(F)(F)CNC(=O)c2ccc(COCC(F)(F)F)nc2)cn1
0.0321	0.0251	O=c1cc(N2CCOCC2)nc(NCc2cccc3ccccc23)[nH]1
0.0209	0.0179	O=c1cc(N2CCOCC2)nc(NCc2cccc(Cl)c2Cl)[nH]1
0.0705	0.0477	O=c1cc(N2CCOCC2)nc(NCc2cccc(Cl)c2)[nH]1
0.04	0.0418	O=c1cc(N2CCOCC2)nc(NCc2c(Cl)cccc2Cl)[nH]1
0.0447	0.179	O=C(NCc1cccc(OC(F)(F)F)c1)C1c2ccccc2C(=O)N1CCc1ncc(F)cn1 (configuration not stated)
0.0321	0.0988	O=C(NCc1ccc(F)c(OC(F)(F)F)c1)C1c2ccccc2C(=O)N1CCc1ncc(F)cn1 (configuration not stated)
0.0477	0.129	O=C(NCc1ccc(F)c(C(F)(F)F)c1)C1c2ccccc2C(=O)N1CCc1ncc(F)cn1 (configuration not stated)
0.0179	0.0418	O=C(NCc1ccc(OC(F)(F)F)cc1)C1c2cccc(O)c2C(=O)N1CCc1ncc(F)cn1 (configuration not stated)
0.0111	0.0366	CC(Cc1ccccn1)N1C(=O)c2ccccc2C1C(=O)NCc1ccc(OC(F)(F)F)cc1 (configuration not stated)
0.0477	0.0928	O=C(NCc1ccc(OC(F)(F)F)cc1)C1c2ccccc2C(=O)N1CCc1ncc(F)cn1 (configuration not stated)
0.0358	0.0606	O=C(NCc1ccc(OC(F)(F)F)cc1)C1c2ccccc2C(=O)N1C[C@@H]1CCCO1 (some centres not stated)
0.0358	0.0447	O=C(NCc1ccc(OC(F)(F)F)cc1)C1c2ccccc2C(=O)N1CCc1ccccn1 (configuration not stated)
0.0928	0.371	O=C(NCc1ccc(OCC(F)(F)F)nc1)C1c2ccccc2C(=O)N1CCc1ccccn1 (configuration not stated)
0.11	0.262	COc1ccc(-c2c(C(=O)N3CCC[C@H]3CO)cc3cccnn23)cc1
0.0872	0.139	CCN(CCO)C(=O)c1oc2cccnc2c1-c1cccc(C(F)(F)F)c1
0.0568	0.0064	CN(Cc1cccc2ccccc12)c1cc(N2CCOCC2)nc(=O)[nH]1

fraction unbound at 5 h (in vitro [1])	fraction unbound at 5 h (in vitro [2])	SMILES
0.139	0.151	O=c1nc(N2CCOCC2)cc(N(CCO)Cc2cccc3ccccc23)[nH]1
0.013	0.024	CC1CN(c2cc(=O)[nH]c(NCc3cccc4ccccc34)n2)CCO1 (configuration not stated)
0.0784	0.0988	CN1CCN(S(=O)(=O)c2ccc(-c3cnc(N)c(C(=O)Nc4cnccc4CN4CCCC4)n3)cc2)CC1
0.028	0.0099	Cc1ncc(C(N)=S)nc1-c1ccc([C@H]2CC[C@H](CC(=O)O)CC2)cc1
0.0544	0.0383	Cc1nc(C(F)F)c(C(N)=O)nc1-c1ccc([C@H]2CC[C@H](CC(=O)O)CC2)cc1
0.0262	0.0119	Cc1nc(C(C)C)c(C(N)=O)nc1-c1ccc([C@H]2CC[C@H](CC(=O)O)CC2)cc1
0.0219	0.0119	Cc1nc(C(C)C)c(-c2ccc([C@H]3CC[C@H](CC(=O)O)CC3)cc2)nc1C(N)=O
0.028	0.013	NC(=O)c1cncc(-c2ccc([C@H]3CC[C@H](CCO)CC3)cc2)n1
0.0784	0.0251	Cc1nc(C)c(-c2ccc([C@H]3CC[C@H](CC(=O)NC(C)(C)C(=O)O)CC3)cc2)nc1C(N)=O
0.035	0.0063	NC(=O)c1cncc(-c2ccc([C@H]3CC[C@H](CC(=O)O)CC3)cc2)n1
0.0119	0.016	CCC[C@H](c1ccc(C(=O)O)c(Oc2cccc(Cl)c2)c1)N1CCC[C@H](n2cc(C)c(=O)[nH]c2=O)C1
0.007	0.0179	CCC[C@@H](c1ccc(C(=O)O)c(Oc2cccc(Cl)c2)c1)N1CCC[C@H](n2cc(C)c(=O)[nH]c2=O)C1
0.0544	0.0544	O=C(CCCN1CC[Si](O)(c2ccc(Cl)cc2)CC1)c1ccc(F)cc1
0.0409	0.0447	O=C(CCCN1CC[Si](O)(c2cccc(C(F)(F)F)c2)CC1)c1ccc(F)cc1
0.0179	0.0082	Cc1nnc(-c2ccc(N3CCC(Oc4cc(F)ccc4Cl)CC3)nn2)o1
0.0059	0.0209	N#Cc1cc(S(=O)(=O)Nc2ncns2)ccc1Oc1ccc(C(F)(F)F)cc1-c1ccnnc1
0.0081	0.0142	N#Cc1cc(S(=O)(=O)Nc2ncc(Cl)s2)ccc1Oc1ccc(Cl)cc1-c1ccnn1C1CNC1
0.0111	0.002	CC(C)(C)OC(=O)N[C@H](Cc1ccccc1C(F)(F)F)C(=O)NCc1nc2cccnc2n1Cc1ccccc1
0.0358	0.0428	CC(C)Oc1cc(Nc2nc(N[C@@H](C)c3ccc(F)cc3)nc(NC(CO)CO)c2Cl)n[nH]1
0.0099	0.016	CC(C)c1noc(C2CCN(c3ncnc(Nc4ccc(S(C)(=O)=O)cc4F)c3[N+](=O)[O-])CC2)n1
0.0219	0.0366	CC(NC(=O)c1cc2ccccc2[nH]1)c1ccccc1 (configuration not stated)
0.007	0.0437	c1ccc2c(c1)CCC[C@H]2Nc1nc2ccccc2[nH]1
0.0418	0.0752	Cc1onc(-c2ccccc2)c1C(=O)N(C)c1ccc(Cl)cc1
